Data reported in patent US6911194B2, “Skin preparation” (PhotoCure ASA, priority 2000, dated 2005).

Columns and labels:
forearm skin of a person = experiment: Erythema and PpIX fluorescence on forearm skin after topical cream and UVA light (Example 7); type: in vivo, human; details: for content of PpIX produced in the skin areas (fluorescence emission spectra): 20% cream on forearm; for erythema: 20% cream, UVA black light 5 min two hours after application, observed 24 hours later
Description: A cream (Unguentum, Merck) containing 20% ALA, ALA butyl ester and ALA hexyl ester respectively, was applied on three separate areas on the skin of the forearm of a person. Two hours later the skin areas were exposed to UVA light from a black light lamp for 5 min.
The content of PpIX produced in the skin areas was assessed by measuring the fluorescence emission spectra.

SKH1 hairless mouse = experiment: Prevention of UV-induced skin cancer by multiple topical ALA-Me PDT sessions (Example 8); type: in vivo
Description: The ability of multiple photodynamic therapy (PDT) sessions with topical ALA methylester (ALA-Me) to prevent skin cancer induced by ultraviolet radiation (UV) was studied in the SKH1 hairless mouse. Groups of 20 mice were exposed 5 days per week to UV from FS20 tubes. One group was treated weekly with 8% topical ALA-Me followed 2 hours later by 1.2 J/cm^2 of light from a slide projector, The number, location, and size of skin tumors were registered weekly. Other study groups included: mice treated with 8% ALA-Me and not exposed to light, mice exposed to UV and vehicle, mice exposed to topical ALA-Me and light but not UV, as well as mice exposed to UV with half of their bodies treated with 8% ALA-Me and half of their bodies treated with the vehicle. […] After 26 weeks of UV exposure large tumors (≧4 mm) were present in 14 mice of the UV group as compared to only one mouse in the UV-ALA-Me group.

[1] = tested on: skin of C3H/Tif hairless mice; experiment: Pigmentation of hairless mouse skin after topical drug and red laser light (Example 4, Experiment A); type: in vivo
Description: One hour after the application, the mice were exposed to light for 1 min (red laser light, 100 m/Wcm^2, 633 nm). […] The treatment was repeated 10 times within 2 weeks.

human skin [2] = experiment: Erythema and pigmentation on human forearm after topical cream and black light (Example 4, Experiment B); type: in vivo; details: for erythema: high doses: drug 20%, light 3 min, cream applied 4 hours
Description: ALA and ALA derivatives in cream was applied to different areas on the forearm of a person. Four hours afterwards the cream was removed and the arm was exposed to black light, 380 nm, for 1-5 min. The skin of the arm was examined for two weeks.

human skin [3] = experiment: Erythema on human hands after topical cream and blacklight exposure (Example 2); type: in vivo; details: 20% in Unguentum Merck cream, 5 hours on hands, blacklight 350-400 nm for 5 min or 1 min
Description: A high concentration of ALA and ALA-methyl ester (20%, Sigma) in a cream (Unguentum Merck) was applied to a circular area of 1 cm diameter for 5 hours on both hands of a person, FIGS. 1(A, B). A means ALA, M means ALA-methyl ester. The areas of application are shown by the dotted circles on the figure. The cream with the drugs were carefully washed away and the areas were exposed to ordinary blacklight from a fluorescence tube. The wavelengths of the light fall within the region 350-400 nm, FIG. 2. An exposure of 5 minutes was given to the left hand and an exposure of 1 minute was given to the right hand.

Balb/c athymic nude mice = experiment: Tissue distribution of PpIX fluorescence after topical application in mice (Example 5); type: in vivo, mouse; details: 20% cream topical, compared to ALA methyl ester
Description: ALA, ALA methyl ester and ALA hexyl ester containing cream was applied locally on the skin surface of hairless mice. Fluorescence intensities were used as indications of the concentration of PpIX on the application site (skin), in remote skin spots, in liver, intestine, lungs, muscle and brain and plasma.
A cream was prepared using 20% (wt/wt) ALA, ALA-Me or ALA-Hex in an ointment (Unguentum, Merck, Darmstadt, Germany). Approximately 0.2 mg of the freshly prepared cream was applied on a single spot of 1 cm diameter on normal skin of each mouse. An adhesive dressing (OpSite Flexigrid, Smith and Nephew Medical, LTD, Hull, England) with a punched hole of 1 cm in diameter was first put on the skin. Then the cream was applied on the skin in the punched hole and covered with another similar dressing. […]
Female Balb/c athymic nude mice were obtained from Bomholt Gaard (Ry, Denmark). At the start of each experiment, they were 7-8 weeks old and weighed 18-25 g. Three mice were housed per cage with autoclaved filter covers in a room with subdued light at constant temperature (24-26° C.) and humidity (30-50%). […]
The method for determining the amounts of PpIX in tissues was described previously (Ma et al., 1998). […] Levels of PpIX in the supernatants were quantitatively determined by recording fluorescence emission spectra of the samples using a Perkin-Elmer (Norwalk, Conn.) LS 50B spectrofluorimeter. […]

[4] = PpIX concentration in plasma after topical application in mice (Example 5); type: in vivo, mouse; details: 20 hr after topical application of 20% cream
Description: A cream was prepared using 20% (wt/wt) ALA, ALA-Me or ALA-Hex in an ointment (Unguentum, Merck, Darmstadt, Germany). Approximately 0.2 mg of the freshly prepared cream was applied on a single spot of 1 cm diameter on normal skin of each mouse. An adhesive dressing (OpSite Flexigrid, Smith and Nephew Medical, LTD, Hull, England) with a punched hole of 1 cm in diameter was first put on the skin. Then the cream was applied on the skin in the punched hole and covered with another similar dressing. 20 hours application time was used.
Female Balb/c athymic nude mice were obtained from Bomholt Gaard (Ry, Denmark). At the start of each experiment, they were 7-8 weeks old and weighed 18-25 g. Three mice were housed per cage with autoclaved filter covers in a room with subdued light at constant temperature (24-26° C.) and humidity (30-50%). Food and bedding were sterilized and the mice were given tap water ad libitum in sterilized bottles. For proper application of the cream, anaesthesia, hypnorm dormicum (approximately 4 ml/kg body weight), was i.p. injected into the mice.
Immediately after mice were killed, whole blood was drawn directly from the right atrium of the heart. The total volume of blood obtained from each mouse was approximately 0.2 ml and was selected in EDTA-treated micro-tubes. The red blood cells were fluorimetrically determined as described above.

skin of nude BALB/c mice = experiment: Localization of PpIX fluorescence on skin of nude mice under UV lamp (Example 6)
naked mice = details: topical ALA, simulated solar UV radiation; cited from earlier work

CCCCOC(=O)CCC(=O)CN [ALA butyl ester]
content of PpIX produced in the skin areas (fluorescence emission spectra) (forearm skin of a person): smaller | erythema (forearm skin of a person): significant but weaker erythema

CCCCCCOC(=O)CCC(=O)CN [ALA hexyl ester, 5-aminolevulinic acid hexyl ester]
content of PpIX produced in the skin areas (fluorescence emission spectra) (forearm skin of a person): smallest | erythema (forearm skin of a person): significant but weaker erythema

COC(=O)CCC(=O)CN [ALA methyl ester, 5-aminolevulinic acid methyl ester]
delay in tumor appearance, half body ALA-Me and half body vehicle (SKH1 hairless mouse; UV-exposed mice treated on one side with 8% ALA-Me, other side vehicle): observed only on the side treated with ALA-Me | number of mice with large tumors (≧4 mm) (SKH1 hairless mouse; after 26 weeks of UV exposure, groups of 20 mice): one | protoporphyrin IX accumulation in tumors versus adjacent UV exposed skin and normal skin (SKH1 hairless mouse; in vivo fluorescence spectroscopy and fluorescence microscopy at the time of light exposure): preferential accumulation of protoporhyrin IX in tumors | mortality or morbidity (SKH1 hairless mouse; topical ALA-Me-PDT): without increasing mortality or morbidity | time when the first tumor appeared (SKH1 hairless mouse; weekly 8% topical ALA-Me plus 1.2 J/cm^2 light, compared to mice only exposed to UV): significant delay | skin pigmentation ([1]; 1% cream, 1 min red laser light, repeated 10 times within 2 weeks): gradually pigmented | erythema ([1]; 1% in Unguentum Merck cream, light 1 min (633 nm) one hour after application): No erythema was observed | erythema (human skin [2]): led to erythema | erythema spreading out from the area of application (human skin [3]): only in a half-circle in the upper part of the hand

NCC(=O)CCC(=O)O [ALA, 5-aminolevulinic acid]
PpIX outside the application site (Balb/c athymic nude mice; 5 hrs application time): significally more PpIX outside the application site | PpIX outside the application site (Balb/c athymic nude mice; 20 hrs application time): significally more PpIX outside the application site | concentration in plasma [4]: higher than both ALA methylester and ALA hexylester | localization of protoporphyrin IX (PpIX) fluorescence (skin of nude BALB/c mice; 20% cream, photos under UV lamp after 8 hours): localized all over the skin | site of PpIX production after application on the skin of mice (summary statement) (skin of nude BALB/c mice; applied on the skin of mice): induces PpIX in the whole mouse | pigmentation (human skin [2]; 20% ALA, 1 min light (slightly erythemogenic), 2 weeks after light exposure): led to later pigmentation | erythema (human skin [2]): led to erythema | pigmentation (melanogenesis) (human skin [2]; one week after a low dose single nonerythemogenic treatment): clearly visible pigmentation (melanogenesis) | erythema spreading out from the area of application (human skin [3]): circular, covering both the upper and the lower part of the hand | UV induction of skin cancer (naked mice): photo-induced carcinogenesis was delayed | skin reaction of exposed areas (naked mice): erythematous | content of PpIX produced in the skin areas (fluorescence emission spectra) (forearm skin of a person): highest concentration of PpIX | erythema (forearm skin of a person): significant pronounced erythema
